Like-named read-outs stand apart in the source and are kept apart here.
How the values were obtained:
[1] = mouse, in vivo
Description: Peptides conjugated to 5 kD PEG and 12 kD PEG were injected into nude mice bearing HT-1080 xenografts at a dose of 6 nmoles per animal (FIG. 24). […] As controls, a scrambled version of the PLGLAG (SEQ ID NO: 1) cleavable sequence denoted as LALGPG (SEQ ID NO: 48) and a d-amino acid version of the PLGLAG (SEQ ID NO: 1) sequence denoted as plglag were also injected. […] Because of what was what was available at the time, the polyoma transgenic mice were tested in wildtype and iNOS−/− backgrounds.
As the last molecule in the large molecular weight carrier series, 1725 was a fifth generation PAMAM dendrimer conjugated to two MMP cleavable selective transport molecules. The remaining 126 attachment sites were capped with succinyl groups. […] This molecule was injected into both HT-1080 tumor bearing nude transgenic PyMT mice at varying concentrations.

[2] = test system: HT1080 human fibrosarcoma; experiment: Optical imaging of albumin reactive peptides in HT1080 tumor bearing mice; assay type: in vivo; conditions: 3 nmols IV, 24 hours
Description: (§1) Nude mice were injected with 2×^06HT1080 human fibrosarcoma cells in the left #2 mammary fat pad. Experiments were performed 5-7 days post injection. Polyoma Middle T mice (PyMT) were provided by Lesley Ellies and they were injected with peptide IV between 9-12 wks of age when medium to large sized tumors were present in each mammary fat pad. One million mouse mammary adenocarcinoma 4T1.2 cells (from Robyn Anderson, University of Melbourne) were injected into the left mammary fat pad of nude mice (FIGS. 4 and 7) and Balb/c mice (FIGS. 8 and 9) and 5-20 days later were injected with peptide and imaged.
(§2) When tumors were of sufficient size 5-20 days after injection of tumor cells the peptide was injected IV and imaged on the Maestro small animal imager (CRI). Animals were sacrificed by overdose with Isoflurane and dissected. To examine lung metastases, the lungs were inflated with OCT cryoprotectant and imaged on the small animal imager. Blood measurements were taken by bleeding the tail vein at a specified time point and collected in a capillary tube. The tubes were then imaged for presence of the Cy5 fluorescent peptide using the small animal imager. For processing of tissues for gels, 30 mg of tissue was homogenized in a 1% SDS Tris buffer then heated at 80° C. for 10 min and centrifuged. The supernatant was then diluted 1:10 and run on a tricine gel and imaged by fluorescence. […]

[3] = target: T1, mouse serum albumin (Mus musculus, UniProt P07724); experiment: Reaction of maleimide peptide with albumin; conditions: within an hour of mixing, PAGE
T1 construct: Albumin reactive selective transport molecules create a robust reaction with native albumin; purchased Sigma
T1 sequence (P07724 25-608): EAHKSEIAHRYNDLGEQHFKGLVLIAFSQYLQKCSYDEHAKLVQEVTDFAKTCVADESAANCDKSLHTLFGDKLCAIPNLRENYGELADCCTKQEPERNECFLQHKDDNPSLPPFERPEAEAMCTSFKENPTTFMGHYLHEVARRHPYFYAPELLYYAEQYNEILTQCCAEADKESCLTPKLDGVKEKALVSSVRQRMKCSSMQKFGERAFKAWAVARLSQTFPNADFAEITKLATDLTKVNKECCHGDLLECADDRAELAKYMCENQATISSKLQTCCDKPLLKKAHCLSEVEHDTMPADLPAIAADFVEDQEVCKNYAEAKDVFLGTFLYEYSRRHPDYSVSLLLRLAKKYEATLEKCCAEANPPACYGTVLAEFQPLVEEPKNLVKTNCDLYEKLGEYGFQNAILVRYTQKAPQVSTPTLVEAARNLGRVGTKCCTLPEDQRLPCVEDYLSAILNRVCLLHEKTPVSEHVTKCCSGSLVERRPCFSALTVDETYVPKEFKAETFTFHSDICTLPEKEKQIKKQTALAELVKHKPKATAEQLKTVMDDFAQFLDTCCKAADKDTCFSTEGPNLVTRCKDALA
Description: (§3) Maleimide peptides were initially reacted with mouse serum albumin (Sigma) at 40 mg/mL or fresh frozen mouse plasma for one hour. Samples were run on a tricine buffered 10-20% polyacrylamide gel and imaged for Cy5 fluorescence on a UVP gel imager. For the enzyme cleavage assay, Cy5-monomaleimide and the cleavable maleimide peptides were reacted as 2 nmol with mouse serum albumin at 40 mg/mL in 25 mM hepes buffer. The stock was then diluted 1:[…] with 50 nM of recombinant MMP-9 (EMD Biosciences) and digested for 20 minutes and 4 hours then run on a tricine gel and imaged by Cy5.
(§4) Malemide selective transport molecule was reacted mouse serum albumin and plasma in aqueous conditions to determine that peptide reacts with albumin in a test tube. […] Plasma seemed to give somewhat more complete reaction.

[4] = target: T2, recombinant MMP-9 (Homo sapiens, UniProt P14780); experiment: Enzyme cleavage assay of albumin reacted maleimide peptide; assay type: biochemical; conditions: 50 nM MMP-9
T2 construct: purchased EMD Biosciences
T2 sequence (P14780 94-707, species assumed): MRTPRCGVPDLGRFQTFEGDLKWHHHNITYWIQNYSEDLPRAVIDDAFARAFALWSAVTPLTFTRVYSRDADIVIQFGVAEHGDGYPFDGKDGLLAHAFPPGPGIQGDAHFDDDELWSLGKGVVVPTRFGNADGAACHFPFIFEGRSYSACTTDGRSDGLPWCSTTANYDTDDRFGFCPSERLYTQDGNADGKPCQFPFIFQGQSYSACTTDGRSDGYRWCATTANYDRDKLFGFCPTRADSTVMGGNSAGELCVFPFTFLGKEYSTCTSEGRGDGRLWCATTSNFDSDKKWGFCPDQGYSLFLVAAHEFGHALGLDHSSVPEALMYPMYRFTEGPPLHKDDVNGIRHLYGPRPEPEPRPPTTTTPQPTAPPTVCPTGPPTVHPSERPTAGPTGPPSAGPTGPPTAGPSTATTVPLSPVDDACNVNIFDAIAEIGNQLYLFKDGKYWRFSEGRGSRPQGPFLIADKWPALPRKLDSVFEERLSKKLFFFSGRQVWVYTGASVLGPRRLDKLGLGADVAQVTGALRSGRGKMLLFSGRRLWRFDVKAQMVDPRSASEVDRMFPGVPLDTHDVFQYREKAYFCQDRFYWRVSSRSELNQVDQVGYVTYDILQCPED
Description: as §3, §4

[5] = test system: HT1080 human fibrosarcoma; conditions: for toxicity: 44 μmol/kg
Description: A selective transport molecule-Podophyllotoxin (selective transport molecule-podo) conjugate by reacting podo-ss-pyridine with Suc-e8-xPLGLAG-r9-c, purified by HPLC and confirmed by mass spectrometry. The peptide was stored as a TFA salt and the yield was determined by mass. For animal experiments, athymic nude mice were injected with 1×0^6HT1080 human fibrosarcoma cells in the mammary fat pad. After one week when tumors were 30-50 mm^3 mice were injected IP once every other day for a total of three times with 10 μmol/kg of either podophyllotoxin, selective transport molecule alone, or selective transport molecule-podo.
(§5) Therefore we synthesized Suc-e8-xPLGLAG-r9-c(ss-podophyllotoxin) to test in cell culture. […] In order to decide upon a starting dose, we tested podophyllotoxin by itself to determine the effective dose for shrinking tumors.
Three mice in each treatment group were injected with 3 doses, one dose every other day.

[6] = test system: cells; experiment: Toxicity of podophyllotoxin conjugate in cell culture; assay type: cell-based
Text: as §5

[7] = Stability of pDox by analytical HPLC and mass spectra; assay type: physicochemical
Description: pDox dendrimers were synthesized with the intent to coat the dendrimers with one pDox and three Cy5s thus making the dendrimers brightly fluorescent in the far-red. The pDox dendrimer samples that were incubated overnight in pH 7.4 and pH 5 buffer as described previously were injected on HPLC/mass spec. HPLC was run using 30-60% Acetonitrile in water with 0.5% TFA gradient on a reverse phased column. Doxorubicin (470-490) and Cy5 (645-655) absorbance peaks were monitored to reveal a new doxorubicin peak in the pH 5 sample. This peak was proven to be free pDox based upon the mass spec. For quantitation, dendrimers were run on another HPLC using a different C18 reverse phase column with a 10-90% ACN gradient column with 0.14% TFA which has a fluorescence detector. […] To quantify the amount of pDox that was hydrolyzed off the dendrimer, 200 pmols of sample was injected and compared to a standard curve of 12, 36, and 60 pmols of pDox alone.
pDox was synthesized and reacted with the dendrimer via hydrazone linker as done with doxorubicin dendrimers discussed earlier. […] The labeling was so low that the absorbance was undetectable by UV Spectroscopy. It was only by fluorescence spectra measured on a plate reader that it was clear pDox was conjugated to the dendrimers but this was not able to be quantified. […]

[8] = test system: HT1080 bearing mice; experiment: Maximum tolerated dose of pDox
[9] = test system: HT1080 human fibrosarcoma; conditions: 48-100 μmol/kg after multiple doses; cited from earlier work
[10] = test system: 4T1.2 tumor; experiment: Plasma pre-reaction of maleimide peptide, blood levels and tumor fluorescence; assay type: in vivo, mice; conditions: 48 hours
Description: as §1, §2

[11] = test system: HT-1080 tumor bearing nude / transgenic PyMT mice; conditions: mouse, in vivo
Description: Animals expressing the polyoma middle T transgene (PyMT) driven by the MMTV promoter were obtained from Lesley Ellies. Nude animals bearing HT-1080 xenografts were either generated in house or were obtained from Explora Biosciences. Either way, tumors were used once they reached a diameter of […]. Animals were anesthetized with ketamine/midazolam (80 mg/kg, 40 mg/kg) and injected with the indicated construct through the tail vein Animals were typically observed throughout the first hour as they woke up from anesthesia. They were re-anesthetized and imaged at six hours, 12 hours, 24 hours and 48 hours as needed. After the last imaging session, animals were sacrificed by overdose of halothane. The imaging system used evolved over time. For most of the PEGylated conjugates, a simple light box was used, though the image shown is one of the first taken with the Maestro spectral deconvolution imager. The albumin, dextran and PAMAM dendrimer conjugates were tested using a 620/20 excitation filter and collecting images at 680 nm. The streptavidin conjugates were tested using a 640/48 excitation filter, with images collected at 700 nm.
Standardized Uptake Values were initially measured without tissue specific calibrations and were later re-adjusted to take tissue specificity and a light source change into account. […]

[12] = test system: HT1080 tumor; experiment: Doxorubicin conjugated dendrimers in HT1080 tumor bearing mice; assay type: in vivo; conditions: single dose
Description: In multiple experiments, HT1080 bearing nude mice were injected with a single specific dose of doxorubicin dendrimer. […] Mouse weights and tumor volumes were measured regularly. For the urea and the Peg hydrazone dendrimers, mice were imaged spectrally 7 days after injection. Using the Maestro (CRI) spectral deconvolution system and software, doxorubicin fluorescence (red) was separated out from autofluorescence (green). Tumors were removed and imaged by spectral deconvolution and brightfield. For aromatic and thioether dendrimers there were 4 mice for each treatment group but only 2 mice for the urea and Peg hydrazone dendrimers because of limited dendrimer synthesis yields.

[13] = 10 μmol/kg IP, 3 doses, one every other day

Generation 5 PAMAM-(e9-XPLGLAX-r9-k(cy5))2(succ)126
blood halflife, first phase (biphasic) [1]: under 10 minutes
blood halflife, second phase (biphasic) [1]: 10 to 15 h

Suc-e8-xPLGLAG-r9-c(Cy5)
tumor uptake (Cy5 fluorescence) [2]: difficult to detect

mal-e9-oPLG(Cme)AG-r9-c(cy5)
reaction with mouse serum albumin or plasma [3]: most of the peptide reacted with MSA or plasma albumin
tumor uptake (Cy5 fluorescence) [2]: much greater with the cleavable peptide compared to the uncleavable peptide
time to near complete cleavage off albumin [4]: less than 4 hours

12kD-PEG-e9-XPLGLAG-r9-k(cy5)
Approx Plasma Halflife [1]: ~20 m
blood halflife [1]: approximately 20 minutes

G5-PAMAM-[e9-XPLGLAX-r9-k(cy5)]2[PEG]126
Approx Plasma Halflife [1]: ~20 h
blood halflife [1]: over 10 hours

Suc-e8-xPLGLAG-r9-c(ss-podophyllotoxin) [selective transport molecule-podo]
body weight ([5]; 10 μmol/kg IP, 3 doses): lost significant weight
effect on tumor growth [5, 13]: modest slowing of growth
toxicity [5]: acutely toxic
toxicity on cells [6]: submicromolar toxicity

COc1cccc2c1C(=O)c1c(O)c3c(c(O)c1C2=O)C[C@@](O)(C(=O)CO)C[C@@H]3O[C@H]1C[C@H](N2C=CCC2)[C@H](O)[C@H](C)O1 [pDox, 2-pyrrolino doxorubicin]
stability [7]: severe stability problems
effect on tumor growth ([8]; 0.1 mg/kg): significantly slowed tumor growth
lethality ([8]; 0.3 and 1 mg/kg, two mice each): died within 24 hours
maximum tolerated dose ([8]; HT1080 bearing mice): 0.1 mg/kg

COc1cc([C@@H]2c3cc4c(cc3[C@H](O)[C@H]3COC(=O)[C@H]23)OCO4)cc(OC)c1OC [podophyllotoxin, reference compound]
effect on tumor growth [5, 13]: not efficacious
effect on tumor growth ([5]; 10 μmol/kg IP, 3 doses, one every other day, listed as Podo): no therapeutic activity or toxicity
toxicity [5]: no obvious signs of toxicity
effect on tumor growth ([5]; 3 injections at 44 μmol/kg every other day): sufficient to significantly slow tumor growth but not provide a cure
toxicity (literature) [9]: minimal toxicity

Cy5-monomaleimide
tumor fluorescence / uptake [10]: significantly less fluorescence

Streptavidin-[e9-XPLGLAG-r9-k(cy5)]4
Approx Plasma Halflife [1]: ~4 h

G5PAMAM-[e9-XPLGLAG-r9-k(cy5)][PEG]127 [G5PAMAM-[e9-XPLGLAG-r9-k(cy5)] [PEG]127]
tumor uptake relative to PLGLAX dendrimer [11]: decreased tumor uptake

G5PAMAM-[e9-OPLG(MeC)AG-r9-k(cy5)][PEG]127]
liver uptake relative to PLGLAX dendrimer [11]: decrease by a factor of two

COc1cccc2c1C(=O)c1c(O)c3c(c(O)c1C2=O)C[C@@](O)(C(=O)CO)C[C@@H]3O[C@H]1C[C@H](N)[C@H](O)[C@H](C)O1 [doxorubicin]
anti-tumor activity (qualitative) [12]: continually beat the dendrimers in anti-tumor activity

— US9682151B2, “Peptides whose uptake in cells is controllable” (The Regents of the University of California, priority 2009, dated 2017)
